Where “and” joins values, the source holds several entries; their conditions need not be identical. Equal values may be shown once. Read-outs that look alike come from different tables or passages of the source.
What was measured:
[1] = test system: BT474 human breast tumor xenograft; test: BT474 human breast tumor xenograft in CB.17 SCID mice, Example 13; type: in vivo
HT1080 cells = test: Anti-proliferative effect, HT1080 cells; type: cell-based; conditions: for Absorbance ± S.E.: 72 hr
[2] = test system: VEGF-A production in ARPE-19 cells; test: VEGF-A ELISA in ARPE-19 retinal cells, Experiment 1; type: cell-based, human; conditions: for Mean (pg VEGF-A per mL): mean of Adj. Result, Wells 1-3; for Mean (pg VEGF-A per μg protein): mean of Wells 1-3; for % Control: normalized for protein; for Adj. Result (pg VEGF-A per mL) / Result (pg VEGF-A per mL): 72 Hr; for Adj. Result (pg VEGF-A per mL): per well, adjusted for dilution; for Result (pg VEGF-A per mL): single reads, higher than top of standard curve
[3] = test system: rabbit anti-llama biotinylated antibody or his-probe (H-3) biotin labeled antibody; test: ELISA with sdAbs coated, binding of secondary antibodies (Experiments 2 and 3)
Description: Two assays (Experiment 2 and 3) were performed to assess the binding of the secondary antibody to the sdAbs. A similar ELISA method was utilized except the sdAbs were directly coated onto the assay plate at a concentration of 1 μg/mL. Plates were incubated overnight at 2-8° C. After the incubation, plates were washed (3×) and blocked (3% BSA in PBS) for at least one hour at room temperature.
After removal of the blocking buffer and washing (3×), the secondary antibodies, either rabbit anti-llama biotinylated antibody or his-probe (H-3) biotin labeled antibody at was then added at a 1:5,000 dilution to each well and incubated with shaking for at least one hour at room temperature. Only the rabbit anti-llama biotinylated antibody was used in Experiment 2. Both antibodies were run in parallel in Experiment 3.
After the incubation with secondary antibody, the plates were again washed (3×) and HRP at a 1:50,000 dilution was added to each well. Plates were incubated with shaking for at least one hour at room temperature. One last wash (3×) was performed followed by the addition of TMB substrate and plates were incubated at room temperature. For the anti-llama biotinylated antibody stop solution was added to halt the colorimetric reaction at 10 minutes. The his-probe (H-3) biotin labeled antibody was allowed to incubate for 20 minutes prior to stopping. The absorbance at 450 nm was measured as before.

ARPE-19 cells = test: BCA protein content of ARPE-19 cell lysate, Experiment 1; type: cell-based; conditions: 24 Hr; for Protein Conc.: cell lysate
Description: For Experiment 1, the retinal cell line ARPE-19 (ATCC, Manassas, Va.) were plated at 5×10^4 cells/well into a 24-well plate and grown to confluence. All incubations with cells were performed in a 37° C., 5% CO2 humidified incubator. The media was replaced with growth media (DMEM:HAM12) containing 1% FBS and incubated overnight. […] At that time, the supernatant was removed and stored at <−65° C. for ELISA analysis. Cells were lysed using RIPA lysis buffer (ThermoFisher Scientific, Rockford, Ill.) and the protein content of the cell lysate was measured in the BCA assay (ThermoFisher Scientific) according to the kit instructions. VEGF-A was measured utilizing the Human VEGF-A ELISA Kit (ThermoFisher Scientific) in accordance with the kit instructions.
ELISA results were reported as pictograms (pg) VEGF-A/mL and then adjusted for the dilution of samples in the ELISA (1:2 for Experiment 1 and 1:5 for Experiment 2). The ELISA results were then normalized for protein content. […] The positive control (PC) (anti-STAT3 monoclonal antibody) ranged from 48.8 to 66.4 pg VEFG/[…] slightly lower but overlapping the range seen with the negative control. Statistical analysis confirmed that the variation seen was not statistically significant (P value >0.05). The samples collected at 72 hours were higher than the top standard curve.

[4] = test system: PANC-1 human pancreatic cancer xenograft
[5] = test system: MCF-7 human breast tumor xenograft; conditions: for Tumor Volume TV (mm^3), group Mean / Tumor caliper measurement W (mm), individual animal / Tumor Volume TV (mm^3), individual animal / Tumor caliper measurement L (mm), individual animal: 1 mg/kg ip tid × 14
PANC-1 xenograft = test: PANC-1 xenograft, sdAb alone, Gemcitabine alone or combination, Example 19; conditions: SBT-100 5 mg/kg BID, Gemcitabine 20 mg/kg, or both
[6] = 1 mg/kg ip tid × 14 first Day 2 doses

Anti-STAT3 VHH13: anti-STAT3 single domain antibody, SEQ ID NO:3; bacterially produced form referred to as SBT-100
T-C ([1]; 1 mg/kg ip tid × 14 first day 2 doses): 10.8 | effect on growth of BT474 tumors in vivo ([1]; 1 mg/kg ip tid×14, compared to the control group): did not reduce the growth | MTV (n) Day 60 ([1]; Day 60, 1 mg/kg ip tid × 14, n in parentheses): 550 (3) | tumor volume ([1]; day 59 of the study, both groups): 700 cubic mm^3 | Absorbance ± S.E. (HT1080 cells; 25 μg/ml): 1.09 ± 0.01 | Absorbance ± S.E. (HT1080 cells; 50 μg/ml): 0.42 ± 0.04 | Absorbance ± S.E. (HT1080 cells; 100 μg/ml): 0.27 ± 0.01 | Absorbance ± S.E. (HT1080 cells; 200 μg/ml): 0.22 ± 0.02 | IC50 (HT1080 cells; HT1080 cells): 33 µg/mL | % Negative Control ([2]; 0.1 μg/well, 24 Hr): 71.1% | Mean (pg VEGF-A per mL) ([2]; 0.1 μg/well, 24 Hr): 2060 pg VEGF-A per mL | Mean (pg VEGF-A per μg protein) ([2]; 0.1 μg/well, 24 Hr): 66 pg VEGF-A per μg protein | % Control ([2]; 0.1 μg/well, 24 Hr): 76.8% | Adj. Result (pg VEGF-A per mL) ([2]; 0.1 μg/well): >12,000 pg VEGF-A per mL | Result (pg VEGF-A per mL) ([2]; 0.1 μg/well): >6,000 pg VEGF-A per mL | Mean (pg VEGF-A per mL) ([2]; 0.5 μg/well, 24 Hr): 2664 pg VEGF-A per mL | Mean (pg VEGF-A per μg protein) ([2]; 0.5 μg/well, 24 Hr): 99 pg VEGF-A per μg protein | % Control ([2]; 0.5 μg/well, 24 Hr): 115.8% | Adj. Result (pg VEGF-A per mL) ([2]; 0.5 μg/well): >12,000 pg VEGF-A per mL | Result (pg VEGF-A per mL) ([2]; 0.5 μg/well): >6,000 pg VEGF-A per mL | OD450 Values ([3]; His-probe (H-3), Experiment 3, stored 1:100 dilution of sdAb): 0.360 | OD450 Values ([3]; Rabbit anti-Llama Secondary Antibody, Experiment 2, sdAb coated at 1 μg/mL): 1.313 | OD450 Values ([3]; Rabbit anti-Llama Secondary Antibody, Experiment 3, stored 1:100 dilution of sdAb): 0.363 | Total protein per well (ARPE-19 cells; 0.1 μg/well): 12 and 16 and 18 | Protein Conc. (ARPE-19 cells; 0.1 μg/well): 245 µg/mL and 323 µg/mL and 357 µg/mL | Total protein per well (ARPE-19 cells; 0.5 μg/well): 16 and 13 | Protein Conc. (ARPE-19 cells; 0.5 μg/well): 315 µg/mL and 268 µg/mL and 206 µg/mL | growth inhibition ([4]; 500 μg/kg bw IP QDx14): no significant growth inhibition | tumor doubling time ([4]; 500 μg/kg bw IP QDx14): 23.02 days | mean tumor size (±SE) ([4]; treatment group, day 14 of dosing): 318.74 ± 29.76 | % TGD [5, 6]: 42% | Median TTE [5, 6]: 32.9 | T-C [5, 6]: 9.7 | Tumor Volume TV (mm^3), group Mean ([5]; Day 1): 117 mm^3 | Tumor caliper measurement W (mm), individual animal ([5]; Day 1): 6 mm | Tumor Volume TV (mm^3), individual animal ([5]; Day 1, 1 mg/kg): 108 mm^3 (2×) and 126 mm^3 (2×) | Tumor caliper measurement L (mm), individual animal ([5]; Day 1, 1 mg/kg): 6 mm (2×) and 7 mm (2×) | Tumor Volume TV (mm^3), group Mean ([5]; Day 4): 155.3 mm^3 | Tumor Volume TV (mm^3), individual animal ([5]; Day 4, 1 mg/kg): 196 mm^3 and 126 mm^3 and 144 mm^3 | Tumor caliper measurement L (mm), individual animal ([5]; Day 4, 1 mg/kg): 8 mm (2×) and 7 mm | Tumor caliper measurement W (mm), individual animal ([5]; Day 4, 1 mg/kg): 7 mm and 6 mm (2×) | Tumor Volume TV (mm^3), group Mean ([5]; Day 8): 253.7 mm^3 | Tumor Volume TV (mm^3), individual animal ([5]; Day 8, 1 mg/kg): 320 mm^3 and 196 mm^3 and 245 mm^3 | Tumor caliper measurement L (mm), individual animal ([5]; Day 8, 1 mg/kg): 8 mm | Tumor caliper measurement W (mm), individual animal ([5]; Day 8, 1 mg/kg): 7 mm | Tumor Volume TV (mm^3), group Mean ([5]; Day 11): 307 mm^3 | Tumor Volume TV (mm^3), individual animal ([5]; Day 11, 1 mg/kg): 405 mm^3 and 196 mm^3 and 320 mm^3 | Tumor caliper measurement L (mm), individual animal ([5]; Day 11, 1 mg/kg): 8 mm | Tumor caliper measurement W (mm), individual animal ([5]; Day 11, 1 mg/kg): 9 mm and 7 mm | Tumor Volume TV (mm^3), group Mean ([5]; Day 15): 346.5 mm^3 | Tumor Volume TV (mm^3), individual animal ([5]; Day 15, 1 mg/kg): 405 mm^3 and 288 mm^3 | Tumor caliper measurement L (mm), individual animal ([5]; Day 15, 1 mg/kg): 9 mm | Tumor caliper measurement W (mm), individual animal ([5]; Day 15, 1 mg/kg): 9 mm | Tumor Volume TV (mm^3), group Mean ([5]; Day 18): 346.5 mm^3 | Tumor Volume TV (mm^3), individual animal ([5]; Day 18, 1 mg/kg): 405 mm^3 and 288 mm^3 | Tumor caliper measurement L (mm), individual animal ([5]; Day 18, 1 mg/kg): 9 mm | Tumor caliper measurement W (mm), individual animal ([5]; Day 18, 1 mg/kg): 9 mm | Tumor Volume TV (mm^3), group Mean ([5]; Day 22): 477.5 mm^3 | Tumor Volume TV (mm^3), individual animal ([5]; Day 22, 1 mg/kg): 550 mm^3 and 405 mm^3 | Tumor caliper measurement L (mm), individual animal ([5]; Day 22, 1 mg/kg): 11 mm | Tumor caliper measurement W (mm), individual animal ([5]; Day 22, 1 mg/kg): 9 mm | Tumor Volume TV (mm^3), group Mean ([5]; Day 25): 634.5 mm^3 | Tumor Volume TV (mm^3), individual animal ([5]; Day 25, 1 mg/kg): 864 mm^3 and 405 mm^3 | Tumor caliper measurement L (mm), individual animal ([5]; Day 25, 1 mg/kg): 12 mm | Tumor caliper measurement W (mm), individual animal ([5]; Day 25, 1 mg/kg): 12 mm and 9 mm | Tumor Volume TV (mm^3), group Mean ([5]; Day 29): 799.3 mm^3 | Tumor Volume TV (mm^3), individual animal ([5]; Day 29, 1 mg/kg): 1099 mm^3 and 500 mm^3 | Tumor caliper measurement L (mm), individual animal ([5]; Day 29, 1 mg/kg): 13 mm | Tumor caliper measurement W (mm), individual animal ([5]; Day 29, 1 mg/kg): 13 mm | Tumor Volume TV (mm^3), group Mean ([5]; Day 32): 500 mm^3 | Tumor Volume TV (mm^3), individual animal ([5]; Day 32): 500 mm^3 | Tumor Volume TV (mm^3), group Mean ([5]; Day 36): 864 mm^3 | Tumor Volume TV (mm^3), individual animal ([5]; Day 36): 864 mm^3 | Tumor caliper measurement L (mm), individual animal ([5]; Day 36): 12 mm | Tumor caliper measurement W (mm), individual animal ([5]; Day 36): 12 mm | Tumor Volume TV (mm^3), group Mean ([5]; Day 39): 1098.5 mm^3 | Tumor Volume TV (mm^3), individual animal ([5]; Day 39): 1099 mm^3 | Tumor caliper measurement L (mm), individual animal ([5]; Day 39): 13 mm | Tumor caliper measurement W (mm), individual animal ([5]; Day 39): 13 mm | TUMOR VOLUMES (mm^3) Mean (PANC-1 xenograft; Day 1): 107.34 mm^3 | TUMOR VOLUMES (mm^3) Mean (PANC-1 xenograft; Day 5): 145.86 mm^3 | TUMOR VOLUMES (mm^3) Mean (PANC-1 xenograft; Day 8): 149.12 mm^3 | % INHIBITION OF CONTROL (tumor growth) (PANC-1 xenograft; Day 12): 20.70% | TUMOR VOLUMES (mm^3) Mean (PANC-1 xenograft; Day 12): 188.78 mm^3 | TUMOR VOLUMES (mm^3) Mean (PANC-1 xenograft; Day 15): 233.25 mm^3 | % INHIBITION OF CONTROL (tumor growth) (PANC-1 xenograft; Day 19): 18.37% | TUMOR VOLUMES (mm^3) Mean (PANC-1 xenograft; Day 19): 332.68 mm^3 | % INHIBITION OF CONTROL (tumor growth) (PANC-1 xenograft; Day 22): 19.17% | TUMOR VOLUMES (mm^3) Mean (PANC-1 xenograft; Day 22): 390.59 mm^3

Source: US20170327598A1, “SINGLE DOMAIN ANTIBODIES DIRECTED AGAINST INTRACELLULAR ANTIGENS” (SINGH MOLECULAR MEDICINE, LLC, priority 2014, published 2017)
